This is an account of results in patent US6469067B1, “Combinations” (Novartis AG, priority 1999, dated 2002).

The subject of the assay is Dermanyssus gallinae. Nature of the assay: In vitro effect on Dermanyssus gallinae. The following applies: single component; for activity in terms of preventing oviposition, component alone: at 0.32 and 10 ppm. Here is the method:
For the sake of simplicity, the chicken mite Dermanyssus gallinae is used. This is a good model for determining the effect on ticks.
In vitro Effect on Dermanyssus gallinae
The test is carried out with serial dilutions [avermectin component in concentrations of (32), 10, 3.2, 1.0, 0.32 to 0.0001 ppm; the 1-[4-chloro-3-(3-chlor-5-trifluoromethyl-2-pyridyloxy)phenyl]-3-(2,6-difluorobenzoyl)urea in concentrations of 100, 32, 10, 3.2, 1.0, 0.32 and 0.1 ppm]. For the test, the lowest concentration of one active substance is combined with the lowest concentration of the other active substance, and the limits of activity thus worked out. Ten fully engorged female mites of the genus Dermanyssus gallinae adhered to a plastic adhesive film are brought into contact with 50 μl of an aqueous suspension or emulsion of the test combination in question. After drying, the film is stuck onto a glass disc. This creates a kind of air bubble around each mite, the lower surface of which is formed by the glass disc and the upper surface by a bulging of the adhesive film. This bubble contains sufficient air for the mite to avoid suffocating. After 5 days, the effect of the test substance is evaluated with the aid of a stereomicroscope by assessing the effect on mortality, oviposition, egg quality, hatching rate, pupation rate, and development of protonymphs according to the following 4 criteria:
1) if 9 to 10 mites are dead, this indicates a lethal effect (characterised by M);
3) if 2 or more mites survive and produce eggs, but no larvae hatch from these eggs and no protonymphs develop, this indicates a development-inhibiting effect (H);
4)if 2 or more mites survive and lay the usual number of normal eggs, from which larvae hatch and develop into protonymphs, this indicates no activity (−).
In each test, two basic suspensions/emulsions (without active ingredient) and one suspension/emulsion with only one of each component are also tested in the corresponding concentrations.
The test is repeated three times with the following combinations and the results determined. The final result is given in Tables 1 to 3, whereby in the tables marked with a the combinations from the prior art are listed and in the tables marked with b the results of the combinations according to the invention are listed.

Turning to `O=C(NC(=O)c1c(F)cccc1F)Nc1cc(Cl)c(Oc2ncc(C(F)(F)F)cc2Cl)c(Cl)c1` [A, chlorfluazuron], the “activity against Dermanyssus gallinae, component alone” value (all tested concentrations) is on record as “no activity at any concentration”.

`O=C(NC(=O)c1c(F)cccc1F)Nc1ccc(Cl)c(Oc2ncc(C(F)(F)F)cc2Cl)c1` [B, 1-[4-chloro-3-(3-chloro-5-trifluoromethyl-2-pyridyloxy)phenyl]-3-(2,6-difluorobenzoyl)urea]: the “concentration up to which oviposition is prevented, component alone” value amounted to 0.01 ppm.

On to `CO[C@H]1C[C@H](O[C@H]2[C@H](C)O[C@@H](O[C@@H]3/C(C)=C/C[C@@H]4C[C@@H](C[C@]5(C=C[C@H](C)[C@@H](C6CCCCC6)O5)O4)OC(=O)[C@@H]4C=C(C)[C@@H](O)[C@H]5OC/C(=C\C=C\[C@@H]3C)[C@]54O)C[C@@H]2OC)O[C@@H](C)[C@@H]1O` [Doramectin], for which the “activity in terms of preventing oviposition, component alone” value (shortened to “activity in terms”) is “full activity”.

In the case of `CO/N=C1\C[C@]2(C[C@@H]3C[C@@H](C/C=C(\C)C[C@@H](C)/C=C/C=C4\CO[C@@H]5[C@H](O)C(C)=C[C@@H](C(=O)O3)[C@]45O)O2)O[C@H](/C(C)=C/C(C)C)[C@H]1C` [Moxidectin], the “activity in terms” value is “full activity”.

Turning to Ivermectin, the “activity in terms” value is on record as “full activity”.
